The subject of data set [1] is Candida albicans mutant strain NYS 26R. Kind of data set: microbe, parasite or virus in culture. The format is cell-based. The method, then: (§1) C. albicans was grown to log phase in Sabouraud's dextrose broth (5 ml) for 48 hrs at 37° C. in a shaker at 250 rpm. The cells were pelleted by centrifugation at 5000 rpm at 4° C. and the pellet was dissolved in 5 ml phosphate buffered saline PBS (6.8 pH). The culture was divided in to five groups of 1 ml each in eppendrof tubes.
(§2) Ethyl methane sulfonate (EMS) was added to each of the culture tube @ 0.1% (v/v) and allowed to grow for 40 min. Then the mutagen was completely washed off thrice by repeatedly pelleting the cells and re-dissolving in PBS. The mutagenized stocks was then diluted in Sabouraud's dextrose broth two folds and allowed to grow for 6 hrs at 37° C. in a shaker at 250 rpm. Titre of the cells before treatment with EMS and immediately after treatment with EMS was calculated to obtain the killing percentage in each of the five tubes. The mutagenized and fixed cultures were then plated in Sabouraud's dextrose agar containing different concentration of amphotericin, nystatin and clotrimazole.
(§3) The colonies found growing after 5th day from each of the five mutagenized stocks were then purified thrice separately by streaking in the same medium containing the antibiotics.

Data set [2] deals with Candida albicans mutant strain Clo 31R. Kind of data set: microbe, parasite or virus in culture. Format: cell-based. The method, then:
as §1, §2, §3

The subject of data set [3] is Candida albicans mutant strain Clo 28R. Kind of data set: microbe, parasite or virus in culture. The format is cell-based. The procedure:
as §1, §2, §3

For data set [4], the system named is Candida albicans mutant strain NYS 4R. Kind of data set: microbe, parasite or virus in culture. The format is cell-based. The procedure: as §1, §2, §3
Data set [5] concerns Saccharomyces cerevisiae erg 6 (amphotericin and nystatin resistant). The settings on record: 80 μg/disc. The procedure:
(§4) The drug resistance property of the mutants was studied by standardized disc diffusion assay (Bauer at al 1966, American Journal of Clinical Pathology 45: 493-496) with slight modifications. The discs were prepared (5 mm diameter made of Whatman #3 filter paper) by impregnating 8 μl of test compound and placing them on pre-inoculated agar surface.
(§5) A disc containing only the solvent was used as the control. A zone of growth inhibition surrounding the disc is indicative of the […] nature of the strains to antibiotics.
(§6) The pure compound isolated was then tested against polyene and azole resistant strains of Candida albicans. […] In another experiment well-defined amphotericin and nystatin resistant strains of Saccharomyces cerevisiae were used in the assay. These strains designated as erg 2 and erg 6 carry mutations in the ergosterol biosynthetic pathway and therefore are unable to synthesize ergosterol which are the binding site of polyene drugs. Therefore absence of erostreol results in polyene resistance.

For data set [6], the system named is Saccharomyces cerevisiae erg 2 (amphotericin and nystatin resistant). Kind of data set: disc diffusion assay, S. cerevisiae erg 2. The settings on record: 80 μg/disc. The procedure: as §4, §5, §6
On the technique in general: Agar diffusion results depend on both activity and mobility in agar.

Data set [7] relates to Saccharomyces Cerevisiae ABC 287 (WT). Kind of data set: disc diffusion assay, wild type Saccharomyces cerevisiae. Format: cell-based. As to conditions: 80 μg/disc; for zone of inhibition at 80 µg/disc: read-out: Net zone of growth inhibition. The procedure:
as §4, §5, §6

The test system of data set [8] is Candida albicans mutant strain Amph 100R. Kind of data set: disc diffusion assay, mutant Amph 100R. Format: cell-based. As to conditions: for zone of inhibition at 80 µg/disc: Candida albicans, read-out: Net zone of growth inhibition. The procedure:
as §1, §2, §3

The subject of data set [9] is Candida albicans MTCC 1637 (Wild Type). Kind of data set: disc diffusion assay, wild type Candida albicans. Format: cell-based. The settings on record: for zone of inhibition at 80 µg/disc: MTCC1637, read-out: Net zone of growth inhibition. The procedure: as §4, §5
The test system of data set [10] is Candida albicans mutant strain Amph D1R. Kind of data set: microbe, parasite or virus in culture. The format is cell-based. The procedure:
as §1, §2, §3

For data set [11], the system named is Candida albicans mutant strain Amph C6R. Kind of data set: microbe, parasite or virus in culture. Format: cell-based. The procedure:
as §1, §2, §3

Data set [12] concerns Candida albicans mutant strain Amph A8R. Kind of data set: microbe, parasite or virus in culture. Format: cell-based. The procedure: as §1, §2, §3
The subject of data set [13] is Candida albicans mutant strain Amph C7R. Kind of data set: microbe, parasite or virus in culture. Format: cell-based. The procedure: as §1, §2, §3
The subject of data set [14] is Saccharomyces cerevisiae. The settings on record: Caccamese et al (1985); cited from earlier work.
For data set [15], the system named is colon (Caco-2) cancer cell line. Kind of data set: MTT cytotoxicity testing in vitro, Caco-2. Format: cell-based. The settings on record: Homo sapiens, Caco2, 6 h exposure then 48 h. The procedure:
Cytotoxicity testing in vitro was done by the method of Woerdenbag et al.,1993; J.Nat.Prod. […] 2×10^3 cells/well were incubated in the 5% CO2 incubator for 24 h to enable them to adhere properly to the 96 well polysterene microplate (Grenier, Germany). […] Then, 10 μl MTT [3-(4,5-dimethylthiazol-2-yl)-2,5-diphenyltetrazolium bromide; Sigma M 2128] was added, and plates were incubated at 37° C. for 4 h. 100 μl dimethyl sulfoxide (DMSO, Merck, Germany) were added to all wells and mixed thoroughly to dissolve the dark blue crystals. […] Plates were normally read within 1 h of adding the DMSO.

Data set [16] deals with liver (WRL-68) cancer cell line. Kind of data set: MTT cytotoxicity testing in vitro, WRL-68. Format: cell-based. The settings on record: Homo sapiens, WRL68, 6 h exposure then 48 h. The procedure:
(§7) Cytotoxicity testing in vitro was done by the method of Woerdenbag et al.,1993; J.Nat.Prod. 56 (6): 849-856). 2×10^3 cells/well were incubated in the 5% CO2 incubator for 24 h to enable them to adhere properly to the 96 well polysterene microplate (Grenier, Germany). Test compounds dissolved in 100% DMSO (Merck, Germany) in at least five doses were added and left for 6 h after which the compound plus media was replaced with fresh media and the cells were incubated for another 48 h in the CO2 incubator at 37° C. […] Sigma M 2128] was added, and plates were incubated at 37° C. for 4 h. 100 μl dimethyl sulfoxide (DMSO, Merck, Germany) were added to all wells and mixed thoroughly to dissolve the dark blue crystals. After a few minutes at mom temperature to ensure that all is crystals were dissolved, the plates were read on a SpectraMax 190 Mcroplate Elisa reader (Molecular Devices Inc., USA), at 570 nm. Plates were normally read within 1 h of adding the DMSO.

Data set [17] concerns oral (KB 403) cancer cell line. Kind of data set: MTT cytotoxicity testing in vitro, KB 403. The format is cell-based. As to conditions: Homo sapiens, KB403, 6 h exposure then 48 h. The method, then: as §7
A short description of data set [18]: in-vitro ergosterol binding assay.
Description: Therefore, the ability of lichen compounds to bind to ergosterol was also investigated using in-vitro ergosterol binding assay (Antonio & Molinski 1993; J.Natl.Prod.56:54-61).
The test system of data set [19] is ovarian (MCF-7) cancer cell line. Kind of data set: MTT cytotoxicity testing in vitro, MCF-7. Format: cell-based. As to conditions: Homo sapiens, MCF7, 6 h exposure then 48 h. The method, then:
as §7

In data set [20] the test system is (MCF-7) cancer cell line. Kind of data set: MTT cytotoxicity testing in vitro, MCF-7. Format: cell-based. As to conditions: Homo sapiens, MCF7, 6 h exposure then 48 h. The procedure:
as §7

For data set [21], the system named is ovarian (PA-1) cancer cell line. Kind of data set: MTT cytotoxicity testing in vitro, PA-1. The format is cell-based. The settings on record: Homo sapiens, 6 h exposure then 48 h. The method, then: as §7
(In general: Formazan colour is commonly taken as a measure of viable cells.)

The subject of data set [22] is polyene and azole resistant strains of Candida albicans. The format is cell-based.
Protocol: Ethanol extract was prepared and tested against Candida albicans MTCC 1637 (equivalent to ATCC 18804) the fungi that cause different forms of candidiasis in humans and drug resistant mutants of the fungi.
Data set [23] has as its system polyene drug resistant Saccharomyces cerevisiae. Kind of data set: activity against polyene resistant S. cerevisiae (as a group). Format: cell-based. The settings on record: erg 2 and erg 6 strains. From the text:
Therefore absence of erostreol results in polyene resistance.

Where [24] appears, read: Candida albicans, read-out: Net zone of growth inhibition.
[25] abbreviates: Candida albicans MTCC (Wild Type), 80 μg/disc.

Values after ≈ are worked out from the molar mass of the structure shown.

Take `C[C@@H]1[C@H](O)[C@@H](C)/C=C/C=C/C=C/C=C/C=C/C=C/C=C/[C@H](O[C@@H]2O[C@H](C)[C@@H](O)[C@H](N)[C@@H]2O)C[C@@H]2O[C@](O)(C[C@@H](O)C[C@@H](O)[C@H](O)CC[C@@H](O)C[C@@H](O)CC(=O)O[C@H]1C)C[C@H](O)[C@H]2C(=O)O` [Amphotericin]: the zone of inhibition at 80 µg/disc was 4 mm in [1] (setting [24]); 6 mm in data set [2] (setting [24]); 12 mm in [3] (setting [24]); 2 mm in data set [4] (setting [24]); 8 mm in data set [7]; 2 mm in data set [8]. The zone of inhibition at 80 µg/disc in data set [9] (setting [25]) amounted to 9 mm. Besides, the “Net zone of growth inhibition” value is on record as 5 mm in data set [5] and 6 mm in [6].

With `Clc1ccccc1C(c1ccccc1)(c1ccccc1)n1ccnc1` [Clotrimazole, reference compound], the zone of inhibition at 80 µg/disc was 19 mm in data set [1] (setting [24]); 11 mm in data set [2] (setting [24]); 27 mm in data set [10] (setting [24]); 10 mm in data set [11] (setting [24]); 14 mm in data set [3] (setting [24]); 20 mm in data set [4] (setting [24]). Further, the zone of inhibition at 80 µg/disc stood at 22 mm in data set [12] (setting [24]), 12 mm in data set [13] (setting [24]), 25 mm in data set [8] and 17 mm in data set [9] (setting [25]).

As to `COC(=O)c1c(C)cc(O)c(C)c1O` [Methyl-β-orcinolcarboxylate, methyl-β-orcinolcarboxylate], the zone of inhibition at 40 µg/disc in data set [1] (setting [24]) came to 2 mm; in data set [11] (setting [24]), 2 mm; in data set [4] (setting [24]), 2 mm; in data set [12] (setting [24]), 1 mm; in data set [13] (setting [24]), 2 mm. Moreover, the zone of inhibition at 80 µg/disc in data set [1] (setting [24]) was 6 mm; in data set [2] (setting [24]), 3 mm; in [10] (setting [24]), 4 mm; in data set [11] (setting [24]), 4 mm; in [3] (setting [24]) it was 4 mm; in data set [4] (setting [24]), 7 mm. For the same compound, the figures for the zone of inhibition at 80 µg/disc in data set [12] (setting [24]), in data set [13] (setting [24]) and in [7] were 2 mm, 5 mm and 2 mm, respectively. For the same compound, the zone of inhibition at 320 µg/disc was found to be 8 mm in [1] (setting [24]); 4 mm in data set [2] (setting [24]); 6 mm in data set [10] (setting [24]); 5 mm in data set [11] (setting [24]); 6 mm in data set [3] (setting [24]); 8 mm in [4] (setting [24]). Further, the zone of inhibition at 320 µg/disc in data set [12] (setting [24]) worked out at 4 mm; in [13] (setting [24]), 7 mm. Besides, the “Net zone of growth inhibition” value in data set [5] and in data set [6] was 6 mm each time. The “growth inhibition of yeast strains such as Saccharomyces cerevisiae (in words)” value in [14] is given as “inhibit the growth”. Moreover, the IC50 worked out at 1.5 µg/mL (≈ 7.65 µM) in [15]; 1 µg/mL (≈ 5.1 µM) in data set [16]; 0.04 µg/mL (≈ 0.204 µM) in data set [17]; 1 µg/mL (≈ 5.1 µM) in data set [20]; 0.025 µg/mL (≈ 0.127 µM) in data set [21]. In addition, the IC90 in [15] turned out to be 3.5 µg/mL (≈ 17.8 µM); in data set [16], 5 µg/mL (≈ 25.5 µM); in data set [17] it was 4.5 µg/mL (≈ 22.9 µM); in data set [19], 5.5 µg/mL (≈ 28 µM); in data set [21], 4 µg/mL (≈ 20.4 µM). Further, the ergosterol-binding property result in [18] is reported as “does not possess ergosterol-binding property”. For the same compound, in [9] (wild type Candida albicans), the “growth inhibition of the wild type strain (in words)” value is “inactive”. Moreover, in [22], the “activity against drug resistant strains of C. albicans (in words)” value was “able to inhibit the growth of drug resistant strains in a dose dependant manner”. Moreover, the “growth inhibition of polyene drug resistant Saccharomyces cerevisiae (in words)” value in [23] was “able to specifically inhibit the growth”.

With `C[C@@H]1[C@H](O)[C@@H](C)/C=C/C=C/CC/C=C/C=C/C=C/C=C/C(O[C@H]2O[C@H](C)[C@@H](O)[C@H](N)[C@@H]2O)CC2O[C@](O)(CC(O)C(O)CCC(O)CC(O)CC(O)CC(=O)O[C@H]1C)CC(O)C2C(=O)O` (some centres unmarked) [Nystatin], the “Net zone of growth inhibition” value in data set [1] (NYS 26R, 80 μg/disc) turned out to be 9 mm; in [2] (Clo 31R, 80 μg/disc) it was 17 mm; in [10] (Amph D1R, 80 μg/disc), 4 mm; in data set [11] (Amph C6R, 80 μg/disc), 4 mm; in data set [3] (Clo 28R, 80 μg/disc), 21 mm; in data set [4] (NYS 4R, 80 μg/disc), 8 mm. Further, the “Net zone of growth inhibition” value in data set [12] (Amph A8R, 80 μg/disc) is reported as 3 mm; in data set [13] (Amph C7R, 80 μg/disc), 2 mm; in data set [5], 13 mm; in data set [6], 16 mm; in [7], 23 mm; in data set [8] (Amph 100R, 80 μg/disc) it was 13 mm. For the same compound, in data set [9] (setting [25]), the “Net zone of growth inhibition” value was 22 mm.

In general, zone of inhibition refers to the size of the clear area around the sample on an inoculated plate. Usually IC50 stands for the midpoint of a concentration-inhibition curve. The IC90 is the point of the concentration-response curve where the effect stands at 90%.

The record behind these values is patent US20040198815A1, “Antimicrobial and anticancer properties of methyl-beta-orcinolcarboxylate from lichen (Everniastrum cirrhatum)” (priority 2003, published 2004).
